Ends that are not written are not given here.
Experiments:
Format in all cases: cell-based, mouse
[1] = test system: bone marrow-derived macrophages of C3H/HeJ mice (mutant Toll-like receptor 4); assay: NO (nitrite) production by bone marrow-derived macrophages with mutant Tlr4 (Griess reaction); details: Tlr4 wild-type compared with Tlr4 defective macrophages; oligonucleotide 30 μg/ml; 24 h
[2] = test system: bone marrow-derived macrophages of C3H/HeJ mice (mutant Toll-like receptor 4); assay: TNFα production by bone marrow-derived macrophages with mutant Tlr4 (sandwich ELISA); details: C3H/HeJ macrophages; LPS 10 ng/ml, hsp60 10 μg/ml, oligonucleotides 30 μg/ml; 6 h
[3] = test system: hsp60 induced TNFα and Nitric oxide (NO) secretion in J774 cells; assay: Screening of 10-mer peptides for inhibition of hsp60 induced (and CpG induced) TNFα secretion; details: crude peptides at a dilution of 1:10
Experimental: The crude peptides were re-suspended in 500 μl water and tested at a dilution of 1:10, for inhibition of hsp60 induced TNFα and Nitric oxide (NO) secretion in J774 cells (as described in example no. 1 of the application). Selected peptides were tested (in an equivalent assay) also for inhibition of CpG induced TNFα secretion. CpG is a non-specific immunostimulatory oligonucleotide motif with the sequence: […]. CpG DNA: a novel immunomodulator Trends Microbiol 1999; 7:64-5). CpG stimulates J774 cells to produce TNFα in a mechanism different to that used by hsp60 and thus serves as a negative control for non-selective inhibition of TNF secretion (which is not mediated through specific inhibition of hsp60). […] The peptides in this chart were selected for re-screening based on the activity found in screening all the 192 peptides synthesized. The results are presented as percent inhibition of TNF-secretion in response to induction with hsp60 or CpG, and are the average of two repeats.

[4] = test system: bone marrow-derived macrophages of C57BL/6 and C3H/HeN mice; assay: NO (nitrite) production by bone marrow-derived macrophages with wild-type Tlr4 (Griess reaction); details: C57BL/6 and C3H/HeN macrophages; LPS 10 ng/ml, hsp60 10 μg/ml; 24 h
[5] = test system: bone marrow-derived macrophages of C57BL/6 and C3H/HeN mice; assay: TNFα production by bone marrow-derived macrophages with wild-type Tlr4 (sandwich ELISA); details: C57BL/6 and C3H/HeN macrophages; LPS 10 ng/ml, hsp60 10 μg/ml; 6 h

Substance	NO response / NO formation in the two macrophage types [1]	TNFα response [2]	inhibition of hsp60 induced TNFα secretion, activity and specificity versus CpG induced TNFα secretion [3]	NO production [4]	TNFα secretion [5]
5′-ACCGATAACGTTGCCGGTGACG-3′ (DNA ACCGATAACGTTGCCGGTGACG; chemistry not given here) [Pal+, immunostimulatory oligonucleotide containing a CpG motif]	failed to induce NO formation	less stimulatory	–	–	–
5′-TCCATGACGTTCCTGATGCT-3′ (DNA TCCATGACGTTCCTGATGCT; chemistry not given here) [ODN1668, immunostimulatory oligonucleotide containing a CpG motif]	very similar NO response	strong TNFα response	–	–	–
5′-TCCATGAGCTTCCTGATGCT -3′ (DNA TCCATGAGCTTCCTGATGCT; chemistry not given here) [ODN1720, non-stimulatory oligonucleotide lacking a CpG motif]	failed to induce NO formation	did not provoke a response	–	–	–
KVGGTSDVEV [Peptide No. 175]	–	–	hsp60-inhibiting	–	–
Lipopolysaccharide [LPS, reference compound]	–	no response	–	responded	rapid secretion of large amounts of TNFα
VLKVGGTSDV [Peptide No. 173]	–	–	hsp60-inhibiting	–	–

Reference: patent US20040022777A1, “Fragments and antagonists of heat shock protein 60” (priority 1999, published 2004)
